One assay concerns Mus musculus. The experiment in a line: In vivo photosensitizing efficacy in RIF cells of C3H mouse at 1 umol/kg 90 days post-dose. The format is functional.
In a further assay the test system is RIF-1. The experiment in a line: Photosensitizing efficacy in RIF cells at 0.6-2.5 uM and light dose of 0-10 J/cm2 by MTT assay. Particulars: Mus musculus. The format is functional, cell-based.

Consider `CC[C@H]1c2cc3nc4c(c5[nH]c(cc6[nH]c(cc(n2)[C@@H]1C)c(C(C)NCc1cc(C(F)(F)F)cc(C(F)(F)F)c1)c6C)[C@@H](C)[C@@H]5CCC(=O)OC)C(=O)N(Cc1cc(C(F)(F)F)cc(C(F)(F)F)c1)C(=O)C4=C3C` (some centres not stated), for which the Activity in the assay on Mus musculus was 60%; in the assay with RIF-1, “Dose-dependent effect”.

The values are drawn from ChEMBL document CHEMBL1138160, “In vivo stability and photodynamic efficacy of fluorinated bacteriopurpurinimides derived from bacteriochlorophyll-a” (2006).
